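Each compound was tested at five concentrations against cells in 96-well plates for 48 hours. GI50 = concentration required for 50% inhibition of growth.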 Calls of active or inactive are those of the source. No stated cut-off is given here; in the data, active = GI50 up to about 1.1 µM and inactive = higher.
Tests used:
Experiment in all cases: inhibition of tumour cell growth, NCI panel, 48 h
[1] = tested on: 786-0
[2] = tested on: A498
[3] = tested on: ACHN
[4] = tested on: HCC 2998
[5] = tested on: HCT-15
[6] = tested on: MCF7
[7] = tested on: MDA-MB-435
[8] = tested on: NCI-H23
[9] = tested on: NCI-H460
[10] = tested on: RPMI-8226
[11] = tested on: SK-MEL-5
[12] = tested on: SN12C
[13] = tested on: SR
[14] = tested on: TK-10
[15] = tested on: U-251
[16] = tested on: UACC-62
[17] = tested on: UO-31
[18] = tested on: MOLT-4
[19] = tested on: NCI-H226
[20] = tested on: OVCAR-8

SMILES	GI50 [1]	GI50 [2]	GI50 [3]	GI50 [4]	GI50 [5] [µM]	GI50 [6]	GI50 [7]	GI50 [8]	GI50 [9]	GI50 [10]	GI50 [11]	GI50 [12]	GI50 [13]	GI50 [14]	GI50 [15]	GI50 [16]	GI50 [17]	GI50 [18]	GI50 [19]	GI50 [20]
Nc1ccc2nc3ccc(N)cc3[n+](-c3ccccc3)c2c1	95.7 µM (inactive)	> 100 µM (inactive)	72.3 µM (inactive)	> 100 µM (inactive)	> 100	5.07 µM (inactive)	50.4 µM (inactive)	22.8 µM (inactive)	32.8 µM (inactive)	> 100 µM (inactive)	25.6 µM (inactive)	25.4 µM (inactive)	98.6 µM (inactive)	> 100 µM (inactive)	38.5 µM (inactive)	64.7 µM (inactive)	> 100 µM (inactive)	–	–	–
NCc1nnn(Cc2ccccc2)c1N	> 100 µM (inactive)	> 100 µM (inactive)	> 100 µM (inactive)	–	> 100	> 100 µM (inactive)	> 100 µM (inactive)	> 100 µM (inactive)	> 100 µM (inactive)	> 100 µM (inactive)	> 100 µM (inactive)	> 100 µM (inactive)	> 100 µM (inactive)	> 100 µM (inactive)	> 100 µM (inactive)	> 100 µM (inactive)	–	> 100 µM (inactive)	> 100 µM (inactive)	> 100 µM (inactive)
COc1ccc(/C=N/Nc2nc3ccccc3c(=O)n2-c2ccccc2)cc1	> 100 µM (inactive)	> 100 µM (inactive)	> 100 µM (inactive)	> 100 µM (inactive)	> 100	3.61 µM (inactive)	> 100 µM (inactive)	55.6 µM (inactive)	28.2 µM (inactive)	–	> 100 µM (inactive)	> 100 µM (inactive)	60.7 µM (inactive)	> 100 µM (inactive)	> 100 µM (inactive)	24.4 µM (inactive)	2.28 µM (inactive)	> 100 µM (inactive)	> 100 µM (inactive)	> 100 µM (inactive)
COc1cc2c[n+](C)c3c(c2cc1OC)Cc1cc2c(cc1-3)OCO2	> 100 µM (inactive)	> 100 µM (inactive)	–	–	> 100	> 100 µM (inactive)	> 100 µM (inactive)	> 100 µM (inactive)	–	65 µM (inactive)	> 100 µM (inactive)	> 100 µM (inactive)	29.1 µM (inactive)	> 100 µM (inactive)	> 100 µM (inactive)	> 100 µM (inactive)	> 100 µM (inactive)	48.9 µM (inactive)	> 100 µM (inactive)	> 100 µM (inactive)
O=C1CC(c2ccccc2Cl)Oc2ccccc21 (stereo not given)	29 µM (inactive)	> 100 µM (inactive)	–	71.1 µM (inactive)	24.7	11.4 µM (inactive)	18.5 µM (inactive)	–	28.8 µM (inactive)	17.5 µM (inactive)	32.8 µM (inactive)	–	23.2 µM (inactive)	98.6 µM (inactive)	27.7 µM (inactive)	45.3 µM (inactive)	57.5 µM (inactive)	–	3.84 µM (inactive)	26.4 µM (inactive)
c1ccc2c[n+](CCCC[n+]3ccc4ccccc4c3)ccc2c1	> 100 µM (inactive)	> 100 µM (inactive)	> 100 µM (inactive)	> 100 µM (inactive)	> 100	> 100 µM (inactive)	> 100 µM (inactive)	> 100 µM (inactive)	> 100 µM (inactive)	> 100 µM (inactive)	> 100 µM (inactive)	> 100 µM (inactive)	> 100 µM (inactive)	> 100 µM (inactive)	> 100 µM (inactive)	> 100 µM (inactive)	–	–	> 100 µM (inactive)	> 100 µM (inactive)
